# Source: patent publication US9518015B2, “EP1 receptor ligands” (LABORATORIOS DEL DR. ESTEVE, S.A., priority 2011, dated 2016)
# Target: T1, human EP1 receptor (Homo sapiens, UniProt P34995)
# T1 sequence (P34995 1-402): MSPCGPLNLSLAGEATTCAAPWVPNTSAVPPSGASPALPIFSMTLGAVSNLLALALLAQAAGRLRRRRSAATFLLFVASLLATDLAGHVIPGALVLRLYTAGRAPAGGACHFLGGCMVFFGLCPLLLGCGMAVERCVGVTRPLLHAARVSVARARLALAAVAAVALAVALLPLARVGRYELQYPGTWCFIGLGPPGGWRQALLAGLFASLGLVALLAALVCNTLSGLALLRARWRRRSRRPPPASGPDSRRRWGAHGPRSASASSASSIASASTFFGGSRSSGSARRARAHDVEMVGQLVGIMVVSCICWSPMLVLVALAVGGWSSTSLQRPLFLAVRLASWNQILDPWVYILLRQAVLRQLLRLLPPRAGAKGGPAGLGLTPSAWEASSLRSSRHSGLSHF
# Assay: Test 2: Measurement of IP1 responses by HTRF, suspended HEK-293 cells stably expressing human EP1 receptors, PGE2 30 nM
# Format: cell-based
# Design: expressed in transfected cells
# Settings: HEK293, at 10 μM, read-out: Results of Test 2 (Functional assay), % inh
# Method: Test 2: Measurement of IP1 responses by Homogeneous Time Resolved Fluorescence
# IP1 measurements on HEK-293 cells that stably expressed human EP1 receptors were performed by using a system based on Homogeneous Time Resolved Fluorescense (HTRF) (Gabriel et al., 2003). This technology allows the direct measurement of IP1 in living cells. The principle of this assay is based on competition between IP1 produced by cells and IP1-d2 conjugate for the binding with monoclonal anti-IP1-cryptate conjugate. The HTRF IP1 kit from CisBio was used according to the manufacturer's directions. The experimental procedure was performed as stated below.
# Suspended cells (30,000 cells per well) were added to 96-well culture plates in 40 μl of stimulation buffer (supplied by the kit). Compounds were then added in 20 μl of stimulation buffer and incubated at 37° C. for 15 minutes followed by 10 μl of PGE2 to a final concentration of […]. After 90 minutes at 37° C., the reaction was stopped lysing the cells with a mixture of 15 μl of cryptate and 15 μl of IP1-d2 prepared in the lysis buffer supplied by the manufacturer. Plates were incubated for an additional hour at room temperature and read at 665 nm/620 nm using an UltraEvolution Plate reader (Tecan).
# Antagonist percentage inhibition was calculated relating compounds activity to the 0% inhibition of the wells incubated with 10 nM PGE2 alone and 100% inhibition of the wells incubated with 10 nM PGE2 plus 1 μM of the reference antagonist.
row,Compound,inhibition at 10 µM [%]
1,"O=C(O)c1ccc2c(ccn2Cc2cc(F)ccc2OCc2cc(F)ccc2Cl)c1 [Example 73, 1-(2-((2-chloro-5-fluorobenzyl)oxy)-5-fluorobenzyl)-1H-indole-5-carboxylic acid]",45 to 75
2,"O=C(O)c1ccc2c(ccn2Cc2cc(Cl)ccc2OCC2CC2)c1 [Example 64, 1-(5-chloro-2-(cyclopropylmethoxy)benzyl)-1H-indole-5-carboxylic acid]",> 75
3,"CC(C)COc1cc(Cl)ccc1Cn1ccc2c(C(=O)O)cccc21 [Example 10, 1-(4-chloro-2-isobutoxybenzyl)-1H-indole-4-carboxylic acid]",45 to 75
4,"O=C(O)c1cccc2c1ccn2Cc1cc(F)ccc1OCc1ccc(F)cc1F [Example 53, 1-(2-((2,4-difluorobenzyl)oxy)-5-fluorobenzyl)-1H-indole-4-carboxylic acid]",> 75
5,"O=C(O)c1ccnc2c1ccn2Cc1cc(Cl)ccc1OCc1ccc(Cl)cc1F [Example 90, 1-(5-chloro-2-((4-chloro-2-fluorobenzyl)oxy)benzyl) -1H-pyrrolo[2,3-b]pyridine-4-carboxylic acid]",> 75
6,"O=C(O)c1ccc2c(ccn2Cc2cc(F)ccc2OCc2ccc(F)cc2Cl)c1 [Example 66, 1-(2-((2-chloro-4-fluorobenzyl)oxy)-5-fluorobenzyl)-1H-indole-5-carboxylic acid]",> 75
7,"O=C(O)/C=C/c1cccc2c1ccn2Cc1cc(Br)ccc1OCC1CC1 [Example 80, (E)-3-(1-(5-bromo-2-(cyclopropylmethoxy)benzyl)-1H-indol-4-yl)acrylic acid]",> 75
8,"O=C(O)c1ccc2c(ccn2Cc2cc(Cl)ccc2OCc2ccc(Cl)cc2F)c1 [Example 76, 1-(5-chloro-2-((4-chloro-2-fluorobenzyl)oxy)benzyl)-1H-indole-5-carboxylic acid]",45 to 75
9,"O=C(O)c1ccc2c(ccn2Cc2cc(F)ccc2OCc2cc(F)c(F)c(F)c2)c1 [Example 71, 1-(5-fluoro-2-((3,4,5-trifluorobenzyl)oxy)benzyl)-1H-indole-5-carboxylic acid]",45 to 75
10,"O=C(O)c1cccc2c1ccn2Cc1cc(Br)ccc1OCC1CC1 [Example 8, 1-(5-bromo-2-(cyclopropylmethoxy)benzyl)-1H-indole-4-carboxylic acid]",> 75
11,"O=C(O)c1cccc2c1ccn2Cc1cc(Cl)ccc1OCc1c(F)cc(Br)cc1F [Example 58, 1-(2-((4-bromo-2,6-difluorobenzyl)oxy)-5-chlorobenzyl)-1H-indole-4-carboxylic acid]",> 75
12,"O=C(O)/C=C/c1cccc2c1ccn2Cc1cc(Cl)ccc1OCc1ccc(F)cc1F [Example 82, (E)-3-(1-(5-chloro-2-((2,4-difluorobenzyl)oxy)benzyl)-1H-indol-4-yl)acrylic acid]",> 75
13,O=C(O)c1ccc2c(ccn2Cc2cc(F)ccc2OCc2cc(F)c(F)cc2F)c1 [Example 65],> 75
14,"O=C(O)c1cccc2c1ccn2Cc1cc(C(F)(F)F)ccc1OCc1c(F)cccc1F [Example 37, 1-(2-((2,6-difluorobenzyl)oxy)-5-(trifluoromethyl)benzyl)-1H-indole-4-carboxylic acid]",> 75
15,O=C(O)c1cccc2c1CCCN2Cc1cc(Cl)ccc1OCc1ccc(F)cc1F [Example 95],> 75
16,"O=C(O)c1cccc2c1ccn2Cc1cc(Br)ccc1OCc1ccc(Cl)cc1F [Example 9, 1-(5-bromo-2-((4-chloro-2-fluorobenzyl)oxy)benzyl)-1H-indole-4-carboxylic acid]",> 75
17,"O=C(O)c1ccc2c(ccn2Cc2cc(Br)ccc2OCc2ccc(F)cc2Cl)c1 [Example 70, 1-(5-bromo-2-((2-chloro-4-fluorobenzyl)oxy)benzyl)-1H-indole-5-carboxylic acid]",> 75
18,"O=C(O)/C=C/c1cccc2c1ccn2Cc1cc(C(F)(F)F)ccc1OCc1ccccc1 [Example 79, (E)-3-(1-(2-(benzyloxy)-5-(trifluoromethyl)benzyl)-1H-indol-4-yl)acrylic acid]",> 75

row,Compound,inhibition at 10 µM [%]
1,"O=C(O)c1cccc2c1ccn2Cc1cc(Br)ccc1OCc1ccc(F)cc1 [Example 4, 1-(5-bromo-2-((4-fluorobenzyl)oxy)benzyl)-1H-indole-4-carboxylic acid]",> 75
2,"O=C(O)c1cccc2c1CCCN2Cc1cc(Cl)ccc1OCc1ccc(Cl)cc1F [Example 94, 1-(5-chloro-2-((4-chloro-2-fluorobenzyl)oxy)benzyl) -1,2,3,4-tetrahydroquinoline-5-carboxylic acid]",> 75
3,"O=C(O)c1ccc(F)c2c1ccn2Cc1cc(Cl)ccc1OCc1ccc(F)cc1F [Example 100, sodium 1-(5-chloro-2-((2,4-difluorobenzyl)oxy)benzyl)-7-fluoro-1H-indole-4-carboxylate]",> 75
4,CC(Oc1ccc(Cl)cc1Cn1ccc2c(C(=O)O)cccc21)c1ccc(F)cc1F (stereo not shown) [Example 23],> 75
5,"O=C(O)COc1cccc2c1ccn2Cc1cc(C(F)(F)F)ccc1OCc1ccc(Cl)cc1F [Example 84, 2-((1-(2-((4-chloro-2-fluorobenzyl)oxy)-5-(trifluoromethyl)benzyl)-1H-indol-4-yl)oxy)acetic acid]",> 75
6,"O=C(O)/C=C/c1cccc2c1ccn2Cc1cc(Cl)ccc1OCc1ccc(Cl)cc1F [Example 83, (E)-3-(1-(5-chloro-2-((4-chloro-2-fluorobenzyl)oxy)benzyl)-1H-indol-4-yl)acrylic acid]",> 75
7,"O=C(O)c1cccc2c1ccn2Cc1cc(F)ccc1OCc1cc(F)c(F)cc1Cl [Example 36, 1-(2-((2-chloro-4,5-difluorobenzyl)oxy)-5-fluorobenzyl)-1H-indole-4-carboxylic acid]",45 to 75
8,"O=C(O)c1cccc2c1ccn2Cc1cc(C(F)(F)F)ccc1OCc1ccccc1F [Example 52, 1-(2-((2-fluorobenzyl)oxy)-5-(trifluoromethyl)benzyl)-1H-indole-4-carboxylic acid]",> 75
9,"O=C(O)c1cccc2c1CCN2Cc1cc(Cl)ccc1OCc1ccc(Cl)cc1F [Example 93, 1-(5-chloro-2-((4-chloro-2-fluorobenzyl)oxy)benzyl)indoline-4-carboxylic acid]",> 75
10,O=C(O)c1ccc2c(ccn2Cc2cc(Cl)ccc2OCc2ccc(F)cc2C(F)(F)F)c1 [Example 67],45 to 75
11,"O=C(O)c1cccc2c1ccn2Cc1cc(C(F)(F)F)ccc1OCc1cc(F)ccc1F [Example 39, 1-(2-((2,5-difluorobenzyl)oxy)-5-(trifluoromethyl)benzyl)-1H-indole-4-carboxylic acid]",> 75
12,"O=C(O)c1cccc2c1ccn2Cc1cc(Cl)ccc1CCc1ccc(Cl)cc1F [Example 63, 1-(5-chloro-2-(4-chloro-2-fluorophenethyl)benzyl)-1H-indole-4-carboxylic acid]",> 75
13,"O=C(O)c1cccc2c1ccn2Cc1ncccc1OCc1ccc(Cl)cc1F [Example 61, 1-((3-((4-chloro-2-fluorobenzyl)oxy)pyridin-2-yl)methyl)-1H-indole-4-carboxylic acid]",45 to 75
14,"O=C(O)c1cccc2c1ccn2Cc1cc(Cl)ccc1OCc1cc(F)cc(F)c1 [Example 41, 1-(5-chloro-2-((3,5-difluorobenzyl)oxy)benzyl)-1H-indole-4-carboxylic acid]",> 75
15,"O=C(O)/C=C/c1cccc2c1ccn2Cc1cc(Cl)ccc1OCC1CC1 [Example 81, (E)-3-(1-(5-chloro-2-(cyclopropylmethoxy)benzyl)-1H-indol-4-yl)acrylic acid]",> 75
16,"O=C(O)c1cccc2c1ccn2Cc1cc(Br)ccc1OCc1ccccc1 [Example 2, 1-(2-(benzyloxy)-5-bromobenzyl)-1H-indole-4-carboxylic acid]",> 75
17,"O=C(O)COc1cccc2c1ccn2Cc1cc(Cl)ccc1OCC1CC1 [Example 85, 2-((1-(5-chloro-2-(cyclopropylmethoxy)benzyl)-1H-indol-4-yl)oxy)acetic acid]",> 75
18,"O=C(O)c1cccc2c1ccn2Cc1cc(Cl)ccc1OCc1ccc(F)cc1 [Example 5, 1-(5-chloro-2-((4-fluorobenzyl)oxy)benzyl)-1H-indole-4-carboxylic acid]",> 75

# Same assay, conditions: at 10 μM
row,Compound,"Results of Test 2 (Functional assay), % inh"
1,2-((1-(5-chloro-2-(cyclopropylmethoxy)benzyl)-1H-indol-4-yl)oxy)acetic acid [Example 86],$$ (45 < % inh < 75)
